For 17 molecules, IC50, inhibition and melting point results are on record in patent US20220267289A1, “SELECTIVE BCRP/ABCG2 TRANSPORTER INHIBITORS AS AGENTS TO ABOLISH RESISTANCE TO ANTI-CANCER AGENTS” (UNIVERSITE GRENOBLE ALPES, priority 2019, published 2022).

In one data set the target is T1, BCRP/ABCG2 (Homo sapiens, UniProt Q9UNQ0).
T1 sequence (Q9UNQ0 1-655): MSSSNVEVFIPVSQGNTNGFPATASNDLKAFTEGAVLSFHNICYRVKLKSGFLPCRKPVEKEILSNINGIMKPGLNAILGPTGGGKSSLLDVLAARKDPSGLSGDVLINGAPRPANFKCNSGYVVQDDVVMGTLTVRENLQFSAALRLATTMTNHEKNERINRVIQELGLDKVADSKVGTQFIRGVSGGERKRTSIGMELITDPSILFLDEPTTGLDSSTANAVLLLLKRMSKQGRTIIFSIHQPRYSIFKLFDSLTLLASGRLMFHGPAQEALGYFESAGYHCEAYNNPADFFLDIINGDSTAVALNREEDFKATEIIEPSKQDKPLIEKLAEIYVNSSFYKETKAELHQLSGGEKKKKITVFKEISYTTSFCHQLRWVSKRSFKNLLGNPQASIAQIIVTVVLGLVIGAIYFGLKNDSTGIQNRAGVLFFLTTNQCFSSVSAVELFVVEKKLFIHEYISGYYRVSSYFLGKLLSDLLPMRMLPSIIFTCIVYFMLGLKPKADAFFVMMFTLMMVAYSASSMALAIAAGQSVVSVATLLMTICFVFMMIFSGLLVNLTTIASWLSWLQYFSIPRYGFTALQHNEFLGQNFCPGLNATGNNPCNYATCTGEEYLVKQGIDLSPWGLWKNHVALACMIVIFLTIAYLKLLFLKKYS
Nature of the data set: BCRP-mediated mitoxantrone efflux inhibition, ABCG2-transfected HEK293 cells, flow cytometry. Conditions: for inhibition at 30 min, 1 μM / inhibition at 30 min, 10 μM / inhibition at 30 min, 1 µM: human, probe mitoxantrone (MX), 4 μM. In general terms: Flow cytometry measures light scatter and fluorescence of single cells or particles in a stream.

The next data set deals with T2, MRP1 (ABCC1) (Homo sapiens, UniProt P33527).
T2 construct: expressed in transfected cells; host or cells: Flp-In 293
Nature of the data set: MRP1-mediated calcein-AM efflux inhibition (selectivity assay), ABCC1-transfected Flp-In 293 cells. Conditions: probe calcein-AM (cAM), 0.2 μM cAM; for inhibition at 30 min, 1 μM: [Inhibitor] 1 μM; for inhibition at 30 min, 10 μM: [Inhibitor] 10 μM. The data set is classed as cell-based. Here is the method: (§1) The tests were performed in triplicate.

Another data set has as its target T3, P-gp (ABCB1) (Homo sapiens, UniProt P08183).
T3 construct: expressed in transfected cells; host or cells: NIH/3T3
Nature of the data set: P-gp-mediated rhodamine 123 efflux inhibition (selectivity assay), ABCB1-transfected NIH/3T3 cells. Type of data set: cell-based. Conditions: probe rhodamine 123 (R123), 0.5 μM R123; for inhibition at 30 min, 1 μM: [Inhibitor] 1 μM; for inhibition at 30 min, 10 μM: [Inhibitor] 10 μM. Here is the method:
as §1

Where two headings read alike, the source gives them in different places.

T3 sequence (P08183 whole entry): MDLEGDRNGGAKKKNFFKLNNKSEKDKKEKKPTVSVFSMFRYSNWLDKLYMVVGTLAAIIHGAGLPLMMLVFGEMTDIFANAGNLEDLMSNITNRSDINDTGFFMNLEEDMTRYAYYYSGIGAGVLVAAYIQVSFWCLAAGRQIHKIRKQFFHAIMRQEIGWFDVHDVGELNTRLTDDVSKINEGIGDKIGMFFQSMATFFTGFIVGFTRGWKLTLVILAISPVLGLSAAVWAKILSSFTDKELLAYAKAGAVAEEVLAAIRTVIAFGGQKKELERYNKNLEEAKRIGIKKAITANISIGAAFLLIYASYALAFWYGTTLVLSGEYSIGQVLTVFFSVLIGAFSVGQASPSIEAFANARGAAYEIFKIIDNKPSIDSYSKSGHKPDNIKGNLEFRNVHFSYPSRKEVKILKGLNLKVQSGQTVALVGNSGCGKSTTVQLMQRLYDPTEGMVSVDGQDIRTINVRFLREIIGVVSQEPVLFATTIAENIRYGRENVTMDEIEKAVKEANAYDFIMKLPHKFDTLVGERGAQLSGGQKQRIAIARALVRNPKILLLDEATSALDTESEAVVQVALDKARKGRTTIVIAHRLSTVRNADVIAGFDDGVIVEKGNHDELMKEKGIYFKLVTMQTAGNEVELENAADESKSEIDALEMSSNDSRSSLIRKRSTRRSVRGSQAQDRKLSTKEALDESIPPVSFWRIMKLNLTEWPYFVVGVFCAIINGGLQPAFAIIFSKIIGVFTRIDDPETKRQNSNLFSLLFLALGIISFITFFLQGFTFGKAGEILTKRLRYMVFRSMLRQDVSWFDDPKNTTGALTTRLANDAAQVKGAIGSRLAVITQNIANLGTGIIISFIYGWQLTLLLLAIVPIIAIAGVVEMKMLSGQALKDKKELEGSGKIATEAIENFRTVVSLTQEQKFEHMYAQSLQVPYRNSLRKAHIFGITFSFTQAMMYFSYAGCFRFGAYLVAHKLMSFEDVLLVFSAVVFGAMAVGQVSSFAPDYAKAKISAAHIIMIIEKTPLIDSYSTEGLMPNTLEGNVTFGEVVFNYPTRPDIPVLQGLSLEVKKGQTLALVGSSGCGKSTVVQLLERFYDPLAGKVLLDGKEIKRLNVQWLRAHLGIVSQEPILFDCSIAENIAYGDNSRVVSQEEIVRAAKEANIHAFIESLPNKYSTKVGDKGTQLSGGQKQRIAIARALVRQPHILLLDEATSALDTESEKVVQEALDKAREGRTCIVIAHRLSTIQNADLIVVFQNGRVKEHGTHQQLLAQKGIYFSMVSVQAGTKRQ
T2 sequence (P33527 whole entry): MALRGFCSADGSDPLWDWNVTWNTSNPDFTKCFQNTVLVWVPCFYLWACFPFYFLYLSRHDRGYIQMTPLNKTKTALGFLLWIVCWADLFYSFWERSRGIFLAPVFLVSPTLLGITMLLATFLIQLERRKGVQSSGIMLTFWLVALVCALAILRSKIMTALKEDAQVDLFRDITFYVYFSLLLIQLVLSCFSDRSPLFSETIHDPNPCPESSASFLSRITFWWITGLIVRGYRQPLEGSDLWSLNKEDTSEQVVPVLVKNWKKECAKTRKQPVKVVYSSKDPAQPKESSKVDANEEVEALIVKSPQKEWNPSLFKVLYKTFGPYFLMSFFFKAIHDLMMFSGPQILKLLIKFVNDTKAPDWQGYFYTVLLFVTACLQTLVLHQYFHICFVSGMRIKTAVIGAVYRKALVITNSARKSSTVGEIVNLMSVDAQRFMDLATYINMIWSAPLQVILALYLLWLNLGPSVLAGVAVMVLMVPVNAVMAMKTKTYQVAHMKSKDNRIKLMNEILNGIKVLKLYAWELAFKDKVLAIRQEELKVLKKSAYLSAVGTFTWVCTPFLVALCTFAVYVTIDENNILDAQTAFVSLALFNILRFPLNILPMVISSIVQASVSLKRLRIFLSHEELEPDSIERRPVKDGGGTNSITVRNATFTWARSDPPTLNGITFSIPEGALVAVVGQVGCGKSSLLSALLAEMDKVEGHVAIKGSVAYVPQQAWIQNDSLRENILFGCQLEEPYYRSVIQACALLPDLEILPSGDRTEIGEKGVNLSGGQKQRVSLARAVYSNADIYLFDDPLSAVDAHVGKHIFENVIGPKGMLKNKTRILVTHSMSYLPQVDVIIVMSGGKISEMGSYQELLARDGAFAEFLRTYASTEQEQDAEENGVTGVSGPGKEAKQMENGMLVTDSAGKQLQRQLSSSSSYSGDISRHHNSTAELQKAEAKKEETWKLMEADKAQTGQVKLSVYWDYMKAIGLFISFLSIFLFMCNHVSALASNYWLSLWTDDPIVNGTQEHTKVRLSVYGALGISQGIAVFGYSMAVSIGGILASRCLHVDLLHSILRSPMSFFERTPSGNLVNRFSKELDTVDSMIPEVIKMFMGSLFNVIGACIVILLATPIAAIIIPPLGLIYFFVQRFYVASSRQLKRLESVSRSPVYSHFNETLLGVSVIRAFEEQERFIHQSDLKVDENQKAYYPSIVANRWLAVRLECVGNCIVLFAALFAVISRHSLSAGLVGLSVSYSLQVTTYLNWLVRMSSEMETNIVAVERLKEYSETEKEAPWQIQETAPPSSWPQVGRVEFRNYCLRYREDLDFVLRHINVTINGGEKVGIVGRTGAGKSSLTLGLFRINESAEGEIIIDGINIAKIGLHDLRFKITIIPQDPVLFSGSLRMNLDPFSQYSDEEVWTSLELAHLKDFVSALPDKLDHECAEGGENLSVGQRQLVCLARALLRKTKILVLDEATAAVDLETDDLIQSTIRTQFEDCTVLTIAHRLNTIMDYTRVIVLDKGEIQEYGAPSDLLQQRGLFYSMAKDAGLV
Procedure for BCRP/ABCG2: The cells were seeded in 96-well plates at a density of 5×10^4 cells/well in 200 μL of medium and incubated overnight. Then the growth medium was changed to fresh medium containing the compounds and in the presence of 4 μM MX as a fluorescent probe for BCRP-mediated efflux at a final concentration of 0.5% (v/v) DMSO. After 30 min incubation at 37° C., the medium was removed, and the cells were washed with 100 μL of Dulbecco's phosphate-buffered saline (DPBS) followed by dissociation of the cells for 5 min at 37° C. mediated by 25 μL trypsin. Finally, trypsin was neutralised with 175 μL of DPBS ice-cold with 2% bovine serum albumin (BSA) and the cells were carefully resuspended. As a selectivity assay, the same experiment was performed for P-gp and MRP1-mediated efflux with 0.5 μM R123 or 0.2 μM cAM as respective fluorescent substrates instead of MX.
Intracellular fluorescence was measured with a MacsQUANT VRB Analyzer flow cytometer (Miltenyi Biotec) with at least 5000 events recorded. While MX was excited at 635 nm and the fluorescence emission recorded in a 655-730 nm window, R123 and cAM were excited at 488 nm and recorded in a 525/50 nm filter. The compound inhibition yield was estimated by the following equation:
where G2FA is the fluorescence emission (a.u.) of accumulated fluorophore in cells expressing the efflux pump incubated with a fluorescent substrate and the test compound. G2FBG is the resulting background fluorescence emission (a.u.) in cells transfected with ABCG2 (no substrate or test compound). G2S is the fluorescence emission (a.u.) of accumulated fluorophore in cells expressing the efflux pump incubated with substrate only. HEKFA is the fluorescence emission (a.u.) of accumulated fluorophore in control cells incubated with the substrate and test compound. HEKFBG is the resulting background fluorescence emission (a.u.) in control cells (no substrate or test compound). All values are given as the geometric mean fluorescence emission (a.u.) in a 655-730 nm filter (635 nm excitation) measured over 5000 events. The tests were performed in triplicate.

Broadly, the IC50 is the midpoint of a concentration-inhibition curve. Read a high IC50 as lower potency. By inhibition is commonly meant the drop in the measured response relative to a control, in per cent. The melting point is the temperature, or range, at which the solid turns liquid. Consider `CCC(C)[C@H](NC(=O)c1cc(=O)c2c(OCc3ccccc3Br)cccc2o1)C(=O)OC` (some centres unmarked) [5a (series 1)], for which the melting point fell in the range of 123.1 to 125.7 °C. At BCRP/ABCG2, the half-maximal inhibitory concentration (IC50) was 0.1 ± 0.01 µM; the inhibition at 30 min, 1 μM is 78 ± 9%; the inhibition at 30 min, 10 μM amounted to 143 ± 22%.
Regarding `CCC(C)[C@H](NC(=O)c1cc(=O)c2c(OCc3ccc(Br)cc3)cccc2o1)C(=O)OC` (some centres unmarked) [5b (series 1)], at BCRP/ABCG2, the IC50 turned out to be 0.59 ± 0.08 µM and the inhibition at 30 min, 10 μM turned out to be 115 ± 14%.
With `COC(=O)[C@H](CC(C)C)NC(=O)c1cc(=O)c2c(OCc3ccccc3Br)cccc2o1` [5c (series 1), methyl (5-((2-bromobenzyl)oxy)-4-oxo-4H-chromene-2-carbonylamino)-L-leucinate], the melting point is 60.3 to 60.4 °C. Further, on BCRP/ABCG2, the concentration for half-maximal inhibition (IC50) worked out at 0.14 ± 0.04 µM; the inhibition at 30 min, 1 µM stood at 114%; the inhibition at 30 min, 1 μM turned out to be 115 ± 17%; the inhibition at 30 min, 10 μM turned out to be 102 ± 21.7%. At MRP1 (ABCC1), the inhibition at 30 min, 1 μM is 20.2 ± 2.7% and the inhibition at 30 min, 10 μM was 19.2 ± 2.2%. For the same molecule, at P-gp (ABCB1), the inhibition at 30 min, 1 μM was 7 ± 1.1% and the inhibition at 30 min, 10 μM was determined as 4.8 ± 0.7%.
Molecule `COC(=O)[C@@H](NC(=O)c1cc(=O)c2c(OCc3ccccc3Br)cccc2o1)C(C)C` [5d (series 1), methyl (5-((2-bromobenzyl)oxy)-4-oxo-4H-chromene-2-carbonylamino)-L-valinate] yielded a melting point of 127 to 128.2 °C. Further, on BCRP/ABCG2, the IC50 turned out to be 0.05 ± 0.03 µM; the inhibition at 30 min, 1 µM amounted to 86.6%; the inhibition at 30 min, 1 μM was found to be 87 ± 7%; the inhibition at 30 min, 10 μM is 148 ± 6.7%. At MRP1 (ABCC1), the inhibition at 30 min, 1 μM was 12.6 ± 1.3% and the inhibition at 30 min, 10 μM is 17.8 ± 0.9%. Moreover, on P-gp (ABCB1), the inhibition at 30 min, 1 μM is 7.9 ± 0.7% and the inhibition at 30 min, 10 μM came out at 6.5 ± 1.9%.
Consider `COC(=O)[C@H](Cc1ccccc1)NC(=O)c1cc(=O)c2c(OCc3ccc(Br)cc3)cccc2o1` [5f (series 1), methyl (5-((4-bromobenzyl)oxy)-4-oxo-4H-chromene-2-carbonylamino)-L-phenylalaninate], for which, at MRP1 (ABCC1), the inhibition at 30 min, 1 μM is 23% and the inhibition at 30 min, 10 μM was 19%. For the same molecule, at P-gp (ABCB1), the inhibition at 30 min, 1 μM came out at 6.4 ± 1.5% and the inhibition at 30 min, 10 μM stood at 6.8 ± 1.4%.
For the molecule `COC(=O)[C@H](Cc1c[nH]c2ccccc12)NC(=O)c1cc(=O)c2c(OCc3ccccc3Br)cccc2o1` [5g (series 1), methyl (5-((2-bromobenzyl)oxy)-4-oxo-4H-chromene-2-carbonylamino)-L-tryptophanate], the melting point was 250 to 252.8 °C. Moreover, at BCRP/ABCG2, the inhibition at 30 min, 1 µM turned out to be 93.7%; the inhibition at 30 min, 1 μM came to 93.7 ± 17%; the inhibition at 30 min, 10 μM stood at 39.7 ± 3.7%. In addition, on MRP1 (ABCC1), the inhibition at 30 min, 1 μM is 23 ± 2.5% and the inhibition at 30 min, 10 μM was 16 ± 2.5%. Besides, on P-gp (ABCB1), the inhibition at 30 min, 1 μM was found to be 7.4 ± 0.3% and the inhibition at 30 min, 10 μM turned out to be 5.3 ± 0.5%.
`COC(=O)[C@H](Cc1c[nH]c2ccccc12)NC(=O)c1cc(=O)c2c(OCc3ccc(Br)cc3)cccc2o1` [5h (series 1), methyl (5-((4-bromobenzyl)oxy)-4-oxo-4H-chromene-2-carbonylamino)-L-tryptophanate] came in with a melting point of 235.3 to 236.2 °C. At BCRP/ABCG2, half-maximal inhibition (IC50) required 0.48 ± 0.07 µM; the inhibition at 30 min, 1 µM worked out at 96.4%; the inhibition at 30 min, 1 μM was 92 ± 15%; the inhibition at 30 min, 10 μM turned out to be 87.7 ± 12%. At MRP1 (ABCC1), the inhibition at 30 min, 1 μM is 10.3% and the inhibition at 30 min, 10 μM was 17.4%. Besides, on P-gp (ABCB1), the inhibition at 30 min, 1 μM is 7.4 ± 2.5% and the inhibition at 30 min, 10 μM came out at 6.6 ± 1.4%.
Regarding `CC[C@@H](C)[C@H](NC(=O)c1cc(=O)c2c(OCc3ccc(Br)cc3)cccc2o1)C(=O)O` [6b (series 1), (5-((4-bromobenzyl)oxy)-4-oxo-4H-chromene-2-carbonyl)-L-alloisoleucine], on MRP1 (ABCC1), the inhibition at 30 min, 1 μM was 21.9 ± 4.6% and the inhibition at 30 min, 10 μM is 20.6 ± 1.2%. Besides, on P-gp (ABCB1), the inhibition at 30 min, 1 μM worked out at 7.7 ± 1.9% and the inhibition at 30 min, 10 μM is 7.1 ± 0.6%.
As to `O=C(N[C@@H](Cc1ccccc1)C(=O)O)c1cc(=O)c2c(OCc3ccc(Br)cc3)cccc2o1` [6d (series 1), (5-((4-bromobenzyl)oxy)-4-oxo-4H-chromene-2-carbonylamino)-L-phenylalanine], on BCRP/ABCG2, the inhibition at 30 min, 1 μM stood at 4 ± 0.7% and the inhibition at 30 min, 10 μM was 6.5%.
Regarding `O=C(N[C@H](Cc1c[nH]c2ccccc12)C(=O)O)c1cc(=O)c2c(OCc3ccc(Br)cc3)cccc2o1` [6e (series 1), (5-((4-bromobenzyl)oxy)-4-oxo-4H-chromene-2-carbonylamino)-D-tryptophan], the melting point fell in the range of 185.5 to 186.7 °C. Moreover, on BCRP/ABCG2, the inhibition at 30 min, 1 μM was 6.1 ± 0.6% and the inhibition at 30 min, 10 μM was 11.2 ± 2%.
As to `CC[C@@H](C)[C@H](NC(=O)c1cc(=O)c2c(OCc3ccccc3Br)cccc2o1)C(=O)N[C@H](C(=O)OC)C(C)C` [7a (series 2)], on BCRP/ABCG2, the midpoint of inhibition, the IC50, lay at 0.07 ± 0.01 µM and the inhibition at 30 min, 1 µM is 84.8 ± 7.4%. At MRP1 (ABCC1), the inhibition at 30 min, 1 μM is 11.1 ± 0.8% and the inhibition at 30 min, 10 μM was 10.8 ± 2.8%. In addition, on P-gp (ABCB1), the inhibition at 30 min, 1 μM was 0.1% and the inhibition at 30 min, 10 μM stood at 0.2%.
The molecule `COc1ccc2[nH]cc(CCNC(=O)c3cc(=O)c4c(OCc5ccc(Br)cc5Br)cccc4o3)c2c1` [7a (series 3), 5-((2,4-dibromobenzyl)oxy)-N-(2-(5-methoxy-1H-indol-3-yl)ethyl)-4-oxo-4H-chromene-2-carboxamide] gave an IC50 at BCRP/ABCG2 of 0.05 ± 0.01 µM.
Consider `CC[C@@H](C)[C@H](NC(=O)c1cc(=O)c2c(OCc3ccccc3Br)cccc2o1)C(=O)N[C@@H](CC(C)C)C(=O)OC` [7b (series 2)], for which, on BCRP/ABCG2, it took 0.07 ± 0.01 µM to reach half-maximal inhibition (IC50) and the inhibition at 30 min, 1 µM is 82.5 ± 9.7%. Moreover, the inhibition at 30 min, 1 μM on MRP1 (ABCC1) is 10.3 ± 0.7%. In addition, on P-gp (ABCB1), the inhibition at 30 min, 1 μM turned out to be 1.7 ± 2.4% and the inhibition at 30 min, 10 μM came to 2.4 ± 0.5%.
With `COc1ccc2[nH]cc(CCNC(=O)c3cc(=O)c4c(OCc5cc(Br)cc(Br)c5)cccc4o3)c2c1` [7b (series 3), ((3,5-dibromobenzyl)oxy)-N-(2-(5-methoxy-1H-indol-3-yl)ethyl)-4-oxo-4H-chromene-2-carboxamide], at BCRP/ABCG2 (ABCG2 inhibition, Table 2), half-maximal inhibition (IC50) was put at 0.1 ± 0.01 µM.
Consider `CC[C@@H](C)[C@H](NC(=O)c1cc(=O)c2c(OCc3ccc(Br)cc3)cccc2o1)C(=O)N[C@H](C(=O)OC)C(C)C` [7c (series 2)], for which, on BCRP/ABCG2, the midpoint of inhibition, the IC50, lay at 0.25 ± 0.1 µM and the inhibition at 30 min, 1 µM is 72.4 ± 7.1%. For the same molecule, at MRP1 (ABCC1), the inhibition at 30 min, 1 μM is 11.5 ± 0.4% and the inhibition at 30 min, 10 μM was 15.3 ± 1.5%. Besides, on P-gp (ABCB1), the inhibition at 30 min, 1 μM is 2.4 ± 2.1% and the inhibition at 30 min, 10 μM is 10.6 ± 0.3%.
On to `CC[C@@H](C)[C@H](NC(=O)c1cc(=O)c2c(OCc3ccc(Br)cc3)cccc2o1)C(=O)N[C@@H](CC(C)C)C(=O)OC` [7d (series 2), methyl (5-((4-bromobenzyl)oxy)-4-oxo-4H-chromene-2-carbonylamino)-L-alloisoleucyl-L-leucinate], for which, at BCRP/ABCG2, the midpoint of inhibition, the IC50, lay at 0.11 ± 0.03 µM and the inhibition at 30 min, 1 µM was found to be 52.3 ± 5.1%. Also, on MRP1 (ABCC1), the inhibition at 30 min, 1 μM was 10.9 ± 1.4% and the inhibition at 30 min, 10 μM was 14.7 ± 1%. In addition, on P-gp (ABCB1), the inhibition at 30 min, 1 μM amounted to 3.6 ± 0.2% and the inhibition at 30 min, 10 μM worked out at 5.9 ± 0.1%.
On to `COc1ccc2[nH]cc(CCNC(=O)c3cc(=O)c4c(OCc5ccc(Br)cc5)cccc4o3)c2c1` [MBL-II-141, reference compound], for which the IC50 at BCRP/ABCG2 (ABCG2 inhibition, Table 2) worked out at 0.13 ± 0.09 µM.
